Tested on: adult cardiac ventricular rat myocytes
Assay: Adult ventricular myocyte contractility (fractional shortening)
Assay type: cell-based
Conditions: 5 min, 5 μM compound, 5 min perfusion, read-out: % FS (% reduction from baseline) ± SEM
Description: Adult male Sprague-Dawley rats were anesthetized and the hearts were quickly excised, rinsed and the ascending aorta was cannulated. Continuous retrograde perfusion was initiated on the hearts at a perfusion pressure of 60 cm H2O. Hearts were first perfused with a nominally Ca^2+-free modified Krebs solution of the following composition: 113 mM NaCl, 4.7 mM KCl, 0.6 mM KH2PO4, 0.6 mM Na2HPO4, 1.2 mM MgSO4, 12 mM NaHCO3, 10 mM KHCO3, 30 mM taurine, 5.5 mM glucose and 10 mM Hepes (all Sigma). This medium is not recirculated and is continually aerated with a 95% O2/5% CO2 mixture. After approximately 3 minutes the heart was perfused with a modified Krebs buffer supplemented with collagenase (Worthington) and 12.5 μM final calcium concentration. The heart was removed from the cannulae after the heart appeared blanched and soft in appearance. The atria and vessels were removed and the ventricles were gently dissected into smaller pieces with forceps. The tissue was homogenized by repeated pipette trituration and the collagenase reaction was stopped by 10% bovine calf serum (BCS), sedimentation and resuspension in perfusion buffer containing 5% BCS and 12.5 uM CaCl2). Myocytes were made calcium tolerant by stepwise addition of a CaCl2) solution to a final concentration of 1.2 mM. Cells were then washed and resuspended in Tyrode's buffer (137 mM NaCl, 3.7 mM KCl, 0.5 mM MgCl, 11 mM glucose, 4 mM Hepes, and 1.2 mM CaCl2), pH 7.4). Cells were kept for 60 min at 37° C. prior to initiating experiments and used within 5 hrs of isolation. […] Additionally, only cells whose basal contractility was between 3 and 8% were used in subsequent experiments with compounds.
Aliquots of myocytes in Tyrode's buffer were placed in perfusion chambers (series 20 RC-27NE; Warner Instruments) complete with heating platforms. Myocytes were allowed to attach, the chambers were heated to 37° C., and the cells were perfused with 37° C. Tyrode's buffer. Myocytes were field stimulated at 1 Hz in with platinum electrodes (20% above threshold). Only cells that had clear striations and were quiescent prior to pacing were used for contractility experiments. To determine basal contractility, myocytes were imaged through a 40× objective. […] Once cell contraction was stable over time, test compounds (0.01-15 μM) were perfused into the chambers on the myocytes for 5 minutes. Contractility of the myocytes and contraction and relaxation velocities were then recorded using edge detection.
Five or more individual myocytes were tested per compound from two or more different myocyte preparations. For each cell, twenty or more contractility transients at basal (defined as 1 min prior to compound infusion) and after compound addition (defined as 5 min after starting compound perfusion), were averaged and compared. These average transients were analyzed using the IonWizard software (IonOptix) to determine changes in diastolic length and fractional shortening. Fractional shortening was calculated as: ((resting length−length at peak contraction) divided by the resting length). The percent change in fractional shortening from baseline was calculated as: ((post-dose fractional shortening/basal fractional shortening)*100). The percent reduction in fractional shortening from baseline was calculated as: (100−percent change in fractional shortening from baseline). Maximum contraction and relaxation velocities (um/sec) was also determined. Results from individual cells are averaged and the SEM calculated.

## CC(C)c1nc(-c2ccc3c(c2)CC[C@H]3NC(=O)c2nnn(C)n2)no1 [Compound 142, (R)—N-(5-(5-isopropyl-1,2,4-oxadiazol-3-yl)-2,3-dihydro-1H-inden-1-yl)-2-methyl-2H-tetrazole-5-carboxamide]
  inhibition at 5 µM: 67.8%

Source: patent publication US12065436B2, “Cardiac sarcomere inhibitors” (Cytokinetics, Inc., priority 2018, dated 2024)
